The target of assay [1] is Metabotropic glutamate receptor 5 (Homo sapiens, UniProt P41594). Nature of the assay: Displacement of MPEP from mGluR5 (unknown origin) after 3 hrs by liquid scintillation counting method.
For a further assay, the species on record is Homo sapiens. Nature of the assay: Displacement of muscimol from GABA-A receptor (unknown origin) after 90 mins by liquid scintillation counting method. Set-up: concentration or dose not given beside the values.
Assay [2] addresses Glutamate [NMDA] receptor. Nature of the assay: Displacement of [3H]MK-801 from NMDA receptor (unknown origin) after 3 hrs by liquid scintillation counting method. The assay is classed as protein-complex assay, Homo sapiens. For orientation: Loss of bound radioactivity is the signal in a displacement assay; it reports binding, not function.
In assay [3] the target is Metabotropic glutamate receptor 2 (Homo sapiens) (UniProt Q14416). Briefly: Antagonist activity at Gi-coupled mGluR2 (unknown origin) expressed in CHO cells assessed as decrease in glutamate-induced inhibition of forskolin-stimulated cAMP accumulation after 1 hr by glosensor based luciferase reporter gene assay relative to control. The format is functional, cell-based. Set-up: concentration or dose not given beside the values. The settings on record: concentration not given here. For orientation: Changes in cAMP serve as a functional read-out for many G protein-coupled receptors.

In assay [4] the target is Metabotropic glutamate receptor 4 (Homo sapiens) (UniProt Q14833). Nature of the assay: Antagonist activity at Gi-coupled mGluR4 (unknown origin) expressed in CHO cells assessed as decrease in glutamate-induced inhibition of forskolin-stimulated cAMP accumulation after 1 hr by glosensor based luciferase reporter gene assay relative to control. The assay is classed as functional, cell-based. Set-up: concentration or dose not given beside the values. The settings on record: concentration not given here.

Each structure is given as a SMILES string. pKi: −log10 of the molar value.

Chain of Metabotropic glutamate receptor 4 (Homo sapiens) (Q14833 whole entry): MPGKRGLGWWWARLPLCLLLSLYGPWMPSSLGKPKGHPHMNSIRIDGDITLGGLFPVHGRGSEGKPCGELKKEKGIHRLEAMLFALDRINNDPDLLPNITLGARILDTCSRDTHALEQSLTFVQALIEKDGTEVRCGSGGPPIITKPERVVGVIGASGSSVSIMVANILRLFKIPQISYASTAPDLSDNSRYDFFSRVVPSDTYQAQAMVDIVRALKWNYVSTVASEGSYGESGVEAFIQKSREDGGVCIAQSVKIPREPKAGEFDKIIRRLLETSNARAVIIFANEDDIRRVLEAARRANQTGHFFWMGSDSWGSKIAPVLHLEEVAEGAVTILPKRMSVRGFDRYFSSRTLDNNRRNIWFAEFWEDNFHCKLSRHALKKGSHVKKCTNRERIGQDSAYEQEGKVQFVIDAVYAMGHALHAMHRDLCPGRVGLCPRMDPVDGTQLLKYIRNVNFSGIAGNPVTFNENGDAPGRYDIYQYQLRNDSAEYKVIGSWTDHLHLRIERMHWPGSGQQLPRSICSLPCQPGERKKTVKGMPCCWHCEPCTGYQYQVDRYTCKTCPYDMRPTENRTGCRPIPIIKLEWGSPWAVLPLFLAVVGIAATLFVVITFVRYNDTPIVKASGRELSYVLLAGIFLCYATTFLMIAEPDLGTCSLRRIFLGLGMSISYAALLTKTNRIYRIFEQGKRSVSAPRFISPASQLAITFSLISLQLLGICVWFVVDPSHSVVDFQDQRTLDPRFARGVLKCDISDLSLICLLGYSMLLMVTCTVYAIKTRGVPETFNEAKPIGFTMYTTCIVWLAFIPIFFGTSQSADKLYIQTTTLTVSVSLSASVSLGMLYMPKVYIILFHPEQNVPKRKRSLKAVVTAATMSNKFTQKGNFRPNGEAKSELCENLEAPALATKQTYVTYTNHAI
Chain of Metabotropic glutamate receptor 2 (Homo sapiens) (Q14416 19-872 limits assumed): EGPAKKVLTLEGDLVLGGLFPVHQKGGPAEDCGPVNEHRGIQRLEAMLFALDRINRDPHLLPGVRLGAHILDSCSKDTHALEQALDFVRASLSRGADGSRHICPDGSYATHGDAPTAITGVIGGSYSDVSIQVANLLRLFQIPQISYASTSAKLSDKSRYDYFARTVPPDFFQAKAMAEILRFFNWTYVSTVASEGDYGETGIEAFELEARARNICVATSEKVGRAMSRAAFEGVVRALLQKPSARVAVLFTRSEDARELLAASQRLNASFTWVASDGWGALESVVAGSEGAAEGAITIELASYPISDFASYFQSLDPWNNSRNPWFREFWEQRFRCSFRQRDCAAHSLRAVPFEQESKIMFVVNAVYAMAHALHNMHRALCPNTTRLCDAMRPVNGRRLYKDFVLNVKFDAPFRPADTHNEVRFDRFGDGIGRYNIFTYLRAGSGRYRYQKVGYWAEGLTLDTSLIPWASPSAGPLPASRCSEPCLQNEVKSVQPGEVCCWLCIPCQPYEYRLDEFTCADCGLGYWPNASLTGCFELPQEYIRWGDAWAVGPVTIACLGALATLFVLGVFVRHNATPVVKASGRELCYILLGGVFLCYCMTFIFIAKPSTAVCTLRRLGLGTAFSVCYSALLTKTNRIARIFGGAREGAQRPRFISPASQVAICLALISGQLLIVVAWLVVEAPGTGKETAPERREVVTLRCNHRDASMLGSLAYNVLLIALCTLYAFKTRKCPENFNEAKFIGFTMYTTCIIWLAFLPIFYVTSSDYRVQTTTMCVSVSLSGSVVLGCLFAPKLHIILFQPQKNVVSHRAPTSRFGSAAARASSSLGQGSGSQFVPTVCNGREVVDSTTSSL
Chain of Metabotropic glutamate receptor 5 (P41594 whole entry): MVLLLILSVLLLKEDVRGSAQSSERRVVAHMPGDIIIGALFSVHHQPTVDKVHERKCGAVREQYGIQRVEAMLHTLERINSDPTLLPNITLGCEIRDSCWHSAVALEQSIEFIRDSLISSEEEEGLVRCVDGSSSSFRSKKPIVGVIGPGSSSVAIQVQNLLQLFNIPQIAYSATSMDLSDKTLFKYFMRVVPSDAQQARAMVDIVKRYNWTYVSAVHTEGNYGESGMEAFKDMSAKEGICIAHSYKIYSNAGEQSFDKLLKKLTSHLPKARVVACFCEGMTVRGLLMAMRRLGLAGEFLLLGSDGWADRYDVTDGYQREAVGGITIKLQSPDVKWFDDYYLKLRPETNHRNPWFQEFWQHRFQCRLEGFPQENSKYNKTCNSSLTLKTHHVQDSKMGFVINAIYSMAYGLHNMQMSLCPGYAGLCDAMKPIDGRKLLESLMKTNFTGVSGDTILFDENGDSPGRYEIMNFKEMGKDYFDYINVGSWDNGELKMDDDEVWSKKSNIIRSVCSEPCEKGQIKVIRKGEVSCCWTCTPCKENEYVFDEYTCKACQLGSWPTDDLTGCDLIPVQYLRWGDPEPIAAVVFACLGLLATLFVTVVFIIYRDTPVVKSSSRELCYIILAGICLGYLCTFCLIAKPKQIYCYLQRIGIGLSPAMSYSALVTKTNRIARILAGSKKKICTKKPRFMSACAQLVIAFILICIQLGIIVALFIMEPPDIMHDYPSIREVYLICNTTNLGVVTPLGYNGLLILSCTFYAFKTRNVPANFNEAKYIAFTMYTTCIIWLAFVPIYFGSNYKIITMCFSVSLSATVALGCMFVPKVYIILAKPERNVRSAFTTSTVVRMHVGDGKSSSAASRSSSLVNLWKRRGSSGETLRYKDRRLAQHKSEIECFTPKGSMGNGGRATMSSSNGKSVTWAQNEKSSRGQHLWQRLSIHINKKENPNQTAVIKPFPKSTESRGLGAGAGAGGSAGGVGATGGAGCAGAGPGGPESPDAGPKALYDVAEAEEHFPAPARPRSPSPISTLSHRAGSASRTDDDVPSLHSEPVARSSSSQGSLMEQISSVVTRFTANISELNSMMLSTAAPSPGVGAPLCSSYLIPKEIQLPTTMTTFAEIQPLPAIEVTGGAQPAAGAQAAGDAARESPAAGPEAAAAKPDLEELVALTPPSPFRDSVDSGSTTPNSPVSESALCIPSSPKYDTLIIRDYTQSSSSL

In the case of `Cc1nn(-c2ccc([N+](=O)[O-])cc2)c(=O)c2nocc12`, the pKi in assay [1] and in assay [2] was below 5.00 each time. Also, the results for the inhibition (in the assay filed under Homo sapiens; in assay [3]; in assay [4]) were -4.7%, 5% and -3%, respectively.
Take `Cc1nn(-c2ccc(F)cc2)c(=O)c2nocc12`: the pKi in assay [1] and in assay [2] was below 5.00 throughout. In addition, the inhibition (commonly the drop in the measured response relative to a control, in per cent) in the assay listed under Homo sapiens was -6%; in assay [3], 23%; in assay [4], 3%.
In the case of `CN1CC(=O)N=C1NC(=O)Nc1cccc(Cl)c1` [FENOBAM ANHYDROUS], the negative-log Ki (pKi) (commonly −log10 of the Ki, conventionally taken in molar units) in assay [1] was 7.48.
With `Cc1nn(-c2ccccc2)c(=O)c2nocc12`, the pKi in assay [1] and in assay [2] was below 5.00 in each case. Also, the inhibition in the assay listed under Homo sapiens was -6%; in assay [4], -5%.
Regarding `COc1ccc(-n2nc(C)c3conc3c2=O)cc1`, the pKi in assay [1] and in assay [2] was below 5.00 in each case. Besides, the inhibition in assay [4] is 9%.
Consider `Cc1nn(-c2cc(C(F)(F)F)cc(C(F)(F)F)c2)c(=O)c2nocc12`, for which the inhibition in the assay listed under Homo sapiens is -7.2%; in assay [3], 0%; in assay [4], 11%. In assay [2], the pKi is below 5.00.
Take `Cc1nn(-c2ccc(F)cc2F)c(=O)c2nocc12`: the negative logarithm of the Ki (pKi) in assay [1] and in assay [2] was below 5.00 in each case. In addition, the results for the inhibition (in the assay filed under Homo sapiens; in assay [4]) were -10% and -7%, respectively.
With `Cc1nn(-c2cc(Cl)cc(Cl)c2)c(=O)c2nocc12`, the figures for the pKi in assay [1] and in assay [2] were 5.51 and below 5.00, respectively. Moreover, the inhibition in the assay filed under Homo sapiens was -7.8%; in assay [3], 11%; in assay [4], -6%.
On to `Cc1ccc(-n2nc(C)c3conc3c2=O)cc1`, for which the pKi was 5.73 in assay [1] and below 5.00 in assay [2]. For the same compound, the inhibition in assay [4] is -9%.
As to `Cc1nn(-c2cccc([N+](=O)[O-])c2)c(=O)c2nocc12`, the pKi in assay [1] and in assay [2] was below 5.00 throughout. The inhibition is 48% in assay [3] and -10% in assay [4].

The record behind these values is ChEMBL document CHEMBL4152351, “Isoxazolo[3,4-d]pyridazinones positively modulate the metabotropic glutamate subtypes 2 and 4” (Bioorg Med Chem, 2018).
